Test results reported in patent US8022206B2 (OSI Pharmaceuticals, LLC, priority 2008, dated 2011).

Experiments:
[1] = target: RON (human) (Homo sapiens, UniProt Q04912); test: RON (human) AlphaScreen kinase assay, Km of ATP; assay type: biochemical; details: AlphaScreen, Km of ATP; read-out: RON biochemical IC50
In short: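 Reaction was started with enzyme and run 30 min at RT. PT66 donor/acceptor beads in an EDTA-containing Tris pH 7.5 buffer were then added, and the signal was read after 1 h.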

[2] = target: MET (human) (Homo sapiens, UniProt P08581); test: MET (human) AlphaScreen kinase assay, Km of ATP; assay type: biochemical; details: AlphaScreen, Km of ATP; read-out: Met biochemical IC50
Sequence of MET (human) (P08581 25-1390): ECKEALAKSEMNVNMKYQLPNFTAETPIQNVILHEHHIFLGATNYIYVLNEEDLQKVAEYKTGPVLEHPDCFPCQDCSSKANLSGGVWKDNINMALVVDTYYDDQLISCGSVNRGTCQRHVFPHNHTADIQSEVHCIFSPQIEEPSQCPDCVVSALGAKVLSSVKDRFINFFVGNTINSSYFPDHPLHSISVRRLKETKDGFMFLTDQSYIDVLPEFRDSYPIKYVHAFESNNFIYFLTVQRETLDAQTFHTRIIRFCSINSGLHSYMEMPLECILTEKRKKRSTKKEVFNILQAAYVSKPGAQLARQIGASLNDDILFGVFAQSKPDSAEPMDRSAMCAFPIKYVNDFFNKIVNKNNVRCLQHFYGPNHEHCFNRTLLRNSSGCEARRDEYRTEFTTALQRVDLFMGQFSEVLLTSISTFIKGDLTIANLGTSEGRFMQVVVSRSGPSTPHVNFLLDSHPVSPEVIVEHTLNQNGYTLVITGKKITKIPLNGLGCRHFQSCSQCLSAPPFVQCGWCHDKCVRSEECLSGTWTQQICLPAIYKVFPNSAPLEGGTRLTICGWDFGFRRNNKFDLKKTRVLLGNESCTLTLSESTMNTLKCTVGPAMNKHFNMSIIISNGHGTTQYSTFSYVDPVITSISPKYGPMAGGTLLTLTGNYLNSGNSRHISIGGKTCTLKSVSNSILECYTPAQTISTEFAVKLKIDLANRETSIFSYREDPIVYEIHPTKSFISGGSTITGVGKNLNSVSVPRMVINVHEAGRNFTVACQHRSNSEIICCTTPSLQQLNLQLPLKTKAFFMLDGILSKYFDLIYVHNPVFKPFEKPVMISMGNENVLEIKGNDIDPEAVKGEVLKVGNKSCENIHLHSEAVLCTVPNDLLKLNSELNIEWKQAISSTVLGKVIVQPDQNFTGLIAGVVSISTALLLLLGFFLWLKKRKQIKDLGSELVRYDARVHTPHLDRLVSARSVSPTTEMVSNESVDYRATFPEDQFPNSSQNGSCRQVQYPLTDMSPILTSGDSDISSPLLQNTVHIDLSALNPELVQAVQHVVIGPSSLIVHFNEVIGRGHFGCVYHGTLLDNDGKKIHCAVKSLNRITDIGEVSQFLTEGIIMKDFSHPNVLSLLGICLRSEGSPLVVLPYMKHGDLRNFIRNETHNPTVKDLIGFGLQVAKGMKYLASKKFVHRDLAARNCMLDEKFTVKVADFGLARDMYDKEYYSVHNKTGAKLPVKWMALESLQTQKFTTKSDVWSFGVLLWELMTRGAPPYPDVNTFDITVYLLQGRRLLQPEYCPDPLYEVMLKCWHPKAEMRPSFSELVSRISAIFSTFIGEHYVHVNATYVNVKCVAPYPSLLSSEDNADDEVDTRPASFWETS
In short: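 Human MET at lot-optimised concentration in 50 mM Tris pH 7.4 buffer with 1 mM DTT, compound at 1% DMSO final; enzyme starts the reaction, 60 min at RT.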

Sequence of RON (human) (Q04912 25-1400): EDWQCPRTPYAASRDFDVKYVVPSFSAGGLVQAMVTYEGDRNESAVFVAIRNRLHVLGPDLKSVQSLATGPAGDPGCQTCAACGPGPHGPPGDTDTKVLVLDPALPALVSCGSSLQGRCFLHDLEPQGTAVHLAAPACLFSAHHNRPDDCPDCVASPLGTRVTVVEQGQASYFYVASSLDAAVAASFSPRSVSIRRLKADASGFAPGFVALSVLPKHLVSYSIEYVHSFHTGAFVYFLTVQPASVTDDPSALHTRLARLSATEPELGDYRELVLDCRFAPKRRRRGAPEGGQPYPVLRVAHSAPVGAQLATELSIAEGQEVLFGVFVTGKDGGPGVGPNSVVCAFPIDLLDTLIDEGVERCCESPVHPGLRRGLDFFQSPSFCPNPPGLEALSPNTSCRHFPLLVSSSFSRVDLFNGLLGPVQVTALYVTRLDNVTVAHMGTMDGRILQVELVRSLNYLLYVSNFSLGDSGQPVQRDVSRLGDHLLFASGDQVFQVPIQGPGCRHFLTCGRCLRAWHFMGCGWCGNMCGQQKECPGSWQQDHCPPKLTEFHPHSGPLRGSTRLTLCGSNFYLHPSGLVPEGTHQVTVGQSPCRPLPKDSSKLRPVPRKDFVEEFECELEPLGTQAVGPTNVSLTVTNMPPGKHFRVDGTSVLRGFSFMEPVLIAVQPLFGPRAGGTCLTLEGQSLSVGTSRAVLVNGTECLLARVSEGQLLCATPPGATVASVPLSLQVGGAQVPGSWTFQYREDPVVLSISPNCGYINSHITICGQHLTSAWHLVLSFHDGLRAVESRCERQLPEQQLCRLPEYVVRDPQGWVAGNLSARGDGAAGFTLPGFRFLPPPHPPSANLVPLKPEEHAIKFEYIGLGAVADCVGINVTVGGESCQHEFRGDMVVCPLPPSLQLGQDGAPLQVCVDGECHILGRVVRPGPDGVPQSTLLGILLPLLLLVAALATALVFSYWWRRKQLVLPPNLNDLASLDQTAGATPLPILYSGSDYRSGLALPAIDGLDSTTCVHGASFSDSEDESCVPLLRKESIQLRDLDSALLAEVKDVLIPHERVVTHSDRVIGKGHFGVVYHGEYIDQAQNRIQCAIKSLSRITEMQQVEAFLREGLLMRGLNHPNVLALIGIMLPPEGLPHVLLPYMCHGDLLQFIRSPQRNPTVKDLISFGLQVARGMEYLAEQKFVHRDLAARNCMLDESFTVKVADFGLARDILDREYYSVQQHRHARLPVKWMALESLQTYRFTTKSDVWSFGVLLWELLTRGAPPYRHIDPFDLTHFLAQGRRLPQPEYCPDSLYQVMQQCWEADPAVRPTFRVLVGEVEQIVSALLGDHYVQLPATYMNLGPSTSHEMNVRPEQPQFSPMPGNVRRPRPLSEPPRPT

Question: Which IC50 [1] does the source give for `C[C@@H](Oc1c(N)ncc2c(C3=CCSCC3)coc12)c1c(Cl)ccc(F)c1Cl` [Example 139, 7-[(R)-1-(2,6-Dichloro-3-fluorophenyl)-ethoxy]-3-(3,6-dihydro-2H-thiopyran-4-yl)-furo[3,2-c]pyridin-6-ylamine] here?
Answer: The IC50 was 0.5 to 5 µM.

Question: And the IC50 [2]?
Answer: Its IC50 is under 500 nM.

Question: How did the IC50 [1] turn out when `CC(Oc1c(N)ncc2c(-c3cnn(C4CCNCC4)c3)coc12)c1c(Cl)cccc1C(F)(F)F` (centres unmarked) [Example 365, 7-[1-(2-Chloro-6-trifluoromethylphenyl)ethoxy]-3-(1-piperidin-4-yl-1H-pyrazol-4-yl)furo[3,2-c]pyridin-6-ylamine] was run?
Answer: The IC50 was 0.5 to 5 µM.

Question: What about the IC50 [2] of the same compound?
Answer: Its IC50 is under 500 nM.

Question: `C[C@@H](Oc1c(N)ncc2c(-c3ccc(CN4CCC4)s3)coc12)c1c(Cl)ccc(F)c1Cl` [Example 220, 3-(5-Azetidin-1-ylmethylthiophen-2-yl)-7-[(R)-1-(2,6-dichloro-3-fluorophenyl)ethoxy]furo[3,2-c]pyridin-6-ylamine] was tested. Which IC50 [1] did it give?
Answer: Its IC50 is under 0.5 µM.

Question: What about the IC50 [2] of the same compound?
Answer: The IC50 was under 500 nM.

Question: What does the source list for `C[C@@H](Oc1c(N)ncc2c(-c3cccc(NS(=O)(=O)CCN(C)C)c3)coc12)c1c(Cl)ccc(F)c1Cl` [Example 249, 2-Dimethylaminoethanesulfonic Acid (3-{6-amino-7-[(R)-1-(2,6-dichloro-3-fluorophenyl)ethoxy]furo[3,2-c]pyridin-3-yl}phenyl)amide]?
Answer: IC50 [1]: 0.5 to 5 µM; IC50 [2]: 500 to 5000 nM

Question: For `CC(Oc1c(N)ncc2c(-c3cnn(C4CCNCC4)c3)coc12)c1cc(F)cc(F)c1` (centres unmarked) [Example 384, 7-[1-(3,5-Difluorophenyl)ethoxy]-3-(1-piperidin-4-yl-1H-pyrazol-4-yl)furo[3,2-c]pyridin-6-ylamine], which IC50 [1] is on record?
Answer: Its IC50 is 0.5 to 5 µM.

Question: What about the IC50 [2] of the same compound?
Answer: The IC50 was 500 to 5000 nM.

Question: With `CC(C)NC(=O)c1coc2c(O[C@H](C)c3c(Cl)ccc(F)c3Cl)c(N)ncc12` [Example 183, 6-Amino-7-[(R)-1-(2,6-dichloro-3-fluorophenyl)ethoxy]furo[3,2-c]pyridine-3-carboxylic acid isopropylamide] as the compound, how does the IC50 [1] read?
Answer: Its IC50 is 0.5 to 5 µM.

Question: And the IC50 [2]?
Answer: The IC50 was 500 to 5000 nM.

Question: Which results are given for `Cc1oc2c(O[C@H](C)c3c(Cl)ccc(F)c3Cl)c(N)ncc2c1-c1cnn(C2CCNCC2)c1` [Example 168, 7-[(R)-1-(2,6-Dichloro-3-fluorophenyl)ethoxy]-2-methyl-3-(1-piperidin-4-yl-1H-pyrazol-4-yl)-furo[3,2-c]pyridin-6-ylamine]?
Answer: IC50 [1]: 0.5 to 5 µM; IC50 [2]: < 500 nM

Question: Which results are given for `CC(C)NC(=O)N1CC=C(c2coc3c(O[C@H](C)c4c(Cl)ccc(F)c4Cl)c(N)ncc23)CC1` [Example 149, 4-{6-Amino-7-[(1R)-1-(2,6-dichloro-3-fluorophenyl)ethoxy]furo[3,2-c]pyridin-3-yl}-N-(propan-2-yl)-3,6-dihydropyridine-1(2H)-carboxamide]?
Answer: IC50 [1]: 0.5 to 5 µM; IC50 [2]: < 500 nM

Question: For `C[C@@H](Oc1c(N)ncc2c(-c3ccc(C(=O)N4CCN(CC(=O)N(C)C)CC4)cc3)coc12)c1c(Cl)ccc(F)c1Cl` [Example 300, 2-[4-(4-{6-Amino-7-[(R)-1-(2,6-dichloro-3-fluorophenyl)ethoxy]furo[3,2-c]pyridin-3-yl}benzoyl)piperazin-1-yl]-N,N-dimethylacetamide], which IC50 [1] is on record?
Answer: The IC50 was 0.5 to 5 µM.

Question: And the IC50 [2]?
Answer: The IC50 was 500 to 5000 nM.

Question: Which results are given for `Cc1cccc(Cl)c1C(C)Oc1c(N)ncc2c(-c3cnn(C4CCNCC4)c3)coc12` (centres unmarked) [Example 375, 7-[1-(2-Chloro-6-methylphenyl)ethoxy]-3-(1-piperidin-4-yl-1H-pyrazol-4-yl)furo[3,2-c]pyridin-6-ylamine]?
Answer: IC50 [1]: 0.5 to 5 µM; IC50 [2]: < 500 nM

Question: Which IC50 [1] does the source give for `C[C@@H](Oc1c(N)ncc2c(C3=CCN(C(=O)C(C)(C)N)CC3)coc12)c1c(Cl)ccc(F)c1Cl` [Example 24, 2-Amino-1-(4-{6-amino-7-[(R)-1-(2,6-dichloro-3-fluorophenyl)-ethoxy]-furo[3,2-c]pyridin-3-yl}-3,6-dihydro-2H-pyridin-1-yl)-2-methylpropan-1-one] here?
Answer: Its IC50 is under 0.5 µM.

Question: And the IC50 [2]?
Answer: The IC50 was under 500 nM.

Question: Which results are given for `COc1cccc(Cl)c1C(C)Oc1c(N)ncc2c(-c3cnn(C4CCNCC4)c3)coc12` (centres unmarked) [Example 359, 7-[1-(2-Chloro-6-methoxyphenyl)ethoxy]-3-(1-piperidin-4-yl-1H-pyrazol-4-yl)furo[3,2-c]pyridin-6-ylamine]?
Answer: IC50 [1]: < 0.5 µM; IC50 [2]: < 500 nM

Question: What does the source list for `CC(Oc1c(N)ncc2c(-c3cnn(C4CCNCC4)c3)coc12)c1ccc(Br)cc1` (centres unmarked) [Example 388, 7-[1-(4-Bromophenyl)ethoxy]-3-(1-piperidin-4-yl-1H-pyrazol-4-yl)furo[3,2-c]pyridin-6-ylamine]?
Answer: IC50 [1]: 0.5 to 5 µM; IC50 [2]: < 500 nM

Question: What does the source list for `C[C@@H](Oc1c(N)ncc2c(-c3cscn3)coc12)c1c(Cl)ccc(F)c1Cl` [Example 136, 7-[(R)-1-(2,6-Dichloro-3-fluorophenyl)-ethoxy]-3-thiazol-4-ylfuro[3,2-c]pyridin-6-ylamine]?
Answer: IC50 [1]: 0.5 to 5 µM; IC50 [2]: 500 to 5000 nM

Question: What does the source list for `C[C@@H]1CN(C(=O)CN2CC=C(c3coc4c(O[C@H](C)c5c(Cl)ccc(F)c5Cl)c(N)ncc34)CC2)C[C@H](C)O1` (relative stereo) [Example 204, 2-(4-{6-Amino-7-[(R)-1-(2,6-dichloro-3-fluorophenyl)ethoxy]-furo[3,2-c]pyridin-3-yl}-3,6-dihydro-2H-pyridin-1-yl)-1-((2R*,6S*)-2,6-dimethylmorpholin-4-yl)ethanone]?
Answer: IC50 [1]: 0.5 to 5 µM; IC50 [2]: < 500 nM

Question: `C[C@@H](Oc1c(N)ncc2c(-c3csc(C(=O)N4CCN(C)CC4)c3)coc12)c1c(Cl)ccc(F)c1Cl` [Example 316, (4-{6-Amino-7-[(R)-1-(2,6-dichloro-3-fluorophenyl)ethoxy]furo[3,2-c]pyridin-3-yl}thiophen-2-yl)-(4-methylpiperazin-1-yl)methanone] was tested. Which IC50 [1] did it give?
Answer: The IC50 was under 0.5 µM.

Question: What about the IC50 [2] of the same compound?
Answer: The IC50 was under 500 nM.

Question: With `CC(Oc1c(N)ncc2c(-c3cnn(C4CCNCC4)c3)coc12)c1nc2ccccc2[nH]1` (centres unmarked) [Example 403, 7-[1-(1H-Benzimidazol-2-yl)ethoxy]-3-(1-piperidin-4-yl-1H-pyrazol-4-yl)furo[3,2-c]pyridin-6-ylamine] as the compound, how does the IC50 [1] read?
Answer: The IC50 was 0.5 to 5 µM.

Question: What about the IC50 [2] of the same compound?
Answer: The IC50 was 500 to 5000 nM.

Question: With `COc1ccc(-c2coc3c(O[C@H](C)c4c(Cl)ccc(F)c4Cl)c(N)ncc23)cc1` [Example 69, 7-[(R)-1-(2,6-Dichloro-3-fluorophenyl)ethoxy]-3-(4-methoxyphenyl)-furo[3,2-c]pyridin-6-ylamine] as the compound, how does the IC50 [1] read?
Answer: Its IC50 is 0.5 to 5 µM.

Question: And the IC50 [2]?
Answer: The IC50 was 500 to 5000 nM.

Question: Which results are given for `C[C@@H](Oc1c(N)ncc2c(C3=CCN(C)CC3)coc12)c1c(Cl)ccc(F)c1Cl` [Example 37, 7-[(R)-1-(2,6-Dichloro-3-fluorophenyl)-ethoxy]-3-(1-methyl-1,2,3,6-tetrahydropyridin-4-yl)-furo[3,2-c]pyridin-6-ylamine]?
Answer: IC50 [1]: < 0.5 µM; IC50 [2]: < 500 nM

Question: Which IC50 [1] does the source give for `C[C@@H](Oc1c(N)ncc2c(-c3cnn(CCN4CCOCC4)c3)coc12)c1c(Cl)ccc(F)c1Cl` [Example 87, 7-[(R)-1-(2,6-Dichloro-3-fluorophenyl)ethoxy]-3-[1-(2-morpholin-4-ylethyl)-1H-pyrazol-4-yl]furo[3,2-c]pyridin-6-ylamine] here?
Answer: Its IC50 is 0.5 to 5 µM.

Question: And the IC50 [2]?
Answer: The IC50 was 500 to 5000 nM.

Question: `C[C@@H](Oc1c(N)ncc2c(-c3ccc(C(=O)N4CCCC4)cc3)coc12)c1c(Cl)ccc(F)c1Cl` [Example 84, (4-{6-Amino-7-[(R)-1-(2,6-dichloro-3-fluorophenyl)ethoxy]-furo[3,2-c]pyridin-3-yl}phenyl)pyrrolidin-1-ylmethanone] was tested. Which IC50 [1] did it give?
Answer: Its IC50 is 0.5 to 5 µM.

Question: What about the IC50 [2] of the same compound?
Answer: The IC50 was under 500 nM.

Question: How did the IC50 [1] turn out when `CC(Oc1c(N)ncc2c(-c3cnn(C4CCNCC4)c3)coc12)c1ccc(Cl)cc1Cl` (centres unmarked) [Example 382, 7-[1-(2,4-Dichlorophenyl)ethoxy]-3-(1-piperidin-4-yl-1H-pyrazol-4-yl)furo[3,2-c]pyridin-6-ylamine] was run?
Answer: Its IC50 is 0.5 to 5 µM.

Question: What about the IC50 [2] of the same compound?
Answer: Its IC50 is under 500 nM.

Question: What does the source list for `COc1ncc(-c2coc3c(O[C@H](C)c4c(Cl)ccc(F)c4Cl)c(N)ncc23)cn1` [Example 93, 7-[(R)-1-(2,6-Dichloro-3-fluorophenyl)ethoxy]-3-(2-methoxypyrimidin-5-yl)furo[3,2-c]pyridin-6-ylamine]?
Answer: IC50 [1]: 5 to 20 µM; IC50 [2]: 500 to 5000 nM

Question: Which IC50 [1] does the source give for `C[C@@H](Oc1c(N)ncc2c(-c3csc(C(=O)N4CCC(O)CC4)c3)coc12)c1c(Cl)ccc(F)c1Cl` [Example 313, (4-{6-Amino-7-[(R)-1-(2,6-dichloro-3-fluorophenyl)ethoxy]-furo[3,2-c]pyridin-3-yl}-thiophen-2-yl)-(4-hydroxypiperidin-1-yl)methanone] here?
Answer: The IC50 was 0.5 to 5 µM.

Question: And the IC50 [2]?
Answer: Its IC50 is 500 to 5000 nM.

Question: Which IC50 [1] does the source give for `C[C@@H](Oc1c(N)ncc2c(-c3ccc(C(=O)N(C)C)s3)coc12)c1c(Cl)ccc(F)c1Cl` [Example 208, 5-{6-Amino-7-[(R)-1-(2,6-dichloro-3-fluorophenyl)ethoxy]-furo[3,2-c]pyridin-3-yl}-thiophene-2-carboxylic acid dimethyl amide] here?
Answer: Its IC50 is 0.5 to 5 µM.

Question: And the IC50 [2]?
Answer: The IC50 was 500 to 5000 nM.

Question: With `C[C@@H](Oc1c(N)ncc2c(-c3cc(C(N)=O)cs3)coc12)c1c(Cl)ccc(F)c1Cl` [Example 326, 5-{6-Amino-7-[(R)-1-(2,6-dichloro-3-fluorophenyl)ethoxy]furo[3,2-c]pyridin-3-yl}thiophene-3-carboxamide] as the compound, how does the IC50 [1] read?
Answer: The IC50 was 5 to 20 µM.

Question: What about the IC50 [2] of the same compound?
Answer: Its IC50 is 500 to 5000 nM.

Question: With `Cc1c(F)cccc1C(C)Oc1c(N)ncc2c(-c3cnn(C4CCNCC4)c3)coc12` (centres unmarked) [Example 380, 7-[1-(3-Fluoro-2-methylphenyl)ethoxy]-3-(1-piperidin-4-yl-1H-pyrazol-4-yl)furo[3,2-c]pyridin-6-ylamine] as the compound, how does the IC50 [1] read?
Answer: The IC50 was 0.5 to 5 µM.

Question: And the IC50 [2]?
Answer: The IC50 was under 500 nM.

Question: For `C[C@H](Oc1c(N)ncc2c(-c3cnn(C4CCNCC4)c3)coc12)c1nnc2ccc(-c3cnn(C)c3)nn12` [Example 479, 7-{(1S)-1-[6-(1-methyl-1H-pyrazol-4-yl) [1,2,4]triazolo[4,3-b]pyridazin-3-yl]ethoxy}-3-[1-(piperidin-4-yl)-1H-pyrazol-4-yl]furo[3,2-c]pyridin-6-amine], which IC50 [1] is on record?
Answer: Its IC50 is 5 to 20 µM.

Question: And the IC50 [2]?
Answer: Its IC50 is 500 to 5000 nM.
